Measurements taken from the supplement of paper PMC12463676, “Small-molecule dissolution of stress granules by redox modulation benefits ALS models” (Nature Chemical Biology, 2025).

These targets were tested with NC(=O)CCCCC1CCSS1 [lipoamide] (assay: thermal stability z-score vs DMSO; higher = more thermally stabilized by treatment). Settings: HeLa; lipoamide concentration 100 µM; arsenate co-treatment: 1 mM arsenate 1 h.
Procedure: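 Cellular thermal proteome profiling in HeLa cells. Cells were treated with 100 µM lipoamide for 1 h, with or without 1 mM arsenate for a further 1 h, then heated to ten temperatures (37-66.3 °C), and soluble protein was quantified by TMT mass spectrometry relative to 0.1% DMSO controls. The thermal stability score (sum of log2 fold changes minus the abundance score) was transformed to a z-score; mean of n = 3 experiments.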
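Further: each temperature applied for 3 min, abundance score taken as mean log2 fold change at the two lowest temperatures, z-score obtained by mean subtraction and division by SD.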

Sequence of UniProt P54277 (P54277 whole entry): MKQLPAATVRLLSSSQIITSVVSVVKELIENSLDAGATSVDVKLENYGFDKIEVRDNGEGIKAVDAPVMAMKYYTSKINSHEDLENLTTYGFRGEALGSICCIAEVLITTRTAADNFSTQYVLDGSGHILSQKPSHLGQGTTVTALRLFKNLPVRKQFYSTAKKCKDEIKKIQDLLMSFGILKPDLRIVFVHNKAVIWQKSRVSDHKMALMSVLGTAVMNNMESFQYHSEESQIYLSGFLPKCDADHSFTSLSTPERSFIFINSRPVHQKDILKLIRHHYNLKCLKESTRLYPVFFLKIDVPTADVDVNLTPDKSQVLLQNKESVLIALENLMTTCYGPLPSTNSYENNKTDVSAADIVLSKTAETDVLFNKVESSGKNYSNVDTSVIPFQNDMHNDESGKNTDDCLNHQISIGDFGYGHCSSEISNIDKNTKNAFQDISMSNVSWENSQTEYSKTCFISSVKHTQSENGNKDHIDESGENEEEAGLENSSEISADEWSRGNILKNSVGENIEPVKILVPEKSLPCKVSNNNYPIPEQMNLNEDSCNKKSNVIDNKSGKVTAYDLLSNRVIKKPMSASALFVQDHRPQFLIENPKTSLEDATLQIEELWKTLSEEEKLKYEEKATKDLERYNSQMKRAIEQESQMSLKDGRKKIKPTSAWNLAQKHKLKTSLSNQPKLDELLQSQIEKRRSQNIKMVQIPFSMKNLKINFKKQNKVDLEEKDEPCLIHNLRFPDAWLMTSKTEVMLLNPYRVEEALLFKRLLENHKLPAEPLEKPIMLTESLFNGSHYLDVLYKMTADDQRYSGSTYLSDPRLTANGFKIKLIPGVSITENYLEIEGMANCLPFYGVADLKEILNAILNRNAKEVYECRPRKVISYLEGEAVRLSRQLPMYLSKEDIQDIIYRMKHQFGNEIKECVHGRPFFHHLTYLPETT
Sequence of UniProt Q8NBJ7 (Q8NBJ7 whole entry): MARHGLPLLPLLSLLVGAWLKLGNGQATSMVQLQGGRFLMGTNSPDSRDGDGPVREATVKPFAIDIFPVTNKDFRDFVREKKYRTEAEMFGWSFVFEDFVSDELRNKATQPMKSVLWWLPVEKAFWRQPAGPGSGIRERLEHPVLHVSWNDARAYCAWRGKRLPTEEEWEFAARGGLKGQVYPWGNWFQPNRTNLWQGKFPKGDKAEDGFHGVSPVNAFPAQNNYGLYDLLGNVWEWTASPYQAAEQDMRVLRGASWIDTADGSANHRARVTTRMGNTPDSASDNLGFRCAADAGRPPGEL
Sequence of UniProt Q96CW5 (Q96CW5 whole entry): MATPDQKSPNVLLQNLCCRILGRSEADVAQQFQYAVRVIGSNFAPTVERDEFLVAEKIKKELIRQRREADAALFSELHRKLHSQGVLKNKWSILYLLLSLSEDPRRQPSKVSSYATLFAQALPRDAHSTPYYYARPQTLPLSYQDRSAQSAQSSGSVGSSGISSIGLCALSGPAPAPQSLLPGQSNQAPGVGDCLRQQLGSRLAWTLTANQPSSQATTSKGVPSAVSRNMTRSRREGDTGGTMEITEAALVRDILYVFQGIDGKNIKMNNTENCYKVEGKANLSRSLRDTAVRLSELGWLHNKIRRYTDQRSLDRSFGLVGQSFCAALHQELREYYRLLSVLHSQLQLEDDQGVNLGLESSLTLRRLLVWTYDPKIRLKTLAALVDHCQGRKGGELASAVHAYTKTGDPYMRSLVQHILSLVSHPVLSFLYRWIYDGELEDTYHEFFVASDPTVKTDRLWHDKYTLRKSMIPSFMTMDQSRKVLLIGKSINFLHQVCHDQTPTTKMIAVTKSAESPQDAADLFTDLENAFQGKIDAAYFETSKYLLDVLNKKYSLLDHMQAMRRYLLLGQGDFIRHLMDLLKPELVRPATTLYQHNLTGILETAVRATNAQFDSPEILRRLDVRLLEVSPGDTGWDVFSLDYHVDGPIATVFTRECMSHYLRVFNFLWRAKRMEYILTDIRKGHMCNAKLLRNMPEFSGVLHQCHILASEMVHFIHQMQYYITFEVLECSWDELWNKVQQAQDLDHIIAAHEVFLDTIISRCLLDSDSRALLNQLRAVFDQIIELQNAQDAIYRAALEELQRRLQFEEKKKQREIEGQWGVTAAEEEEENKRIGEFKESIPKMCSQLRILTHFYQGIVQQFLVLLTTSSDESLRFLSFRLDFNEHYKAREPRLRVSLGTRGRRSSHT
Sequence of UniProt P07814 (P07814 whole entry): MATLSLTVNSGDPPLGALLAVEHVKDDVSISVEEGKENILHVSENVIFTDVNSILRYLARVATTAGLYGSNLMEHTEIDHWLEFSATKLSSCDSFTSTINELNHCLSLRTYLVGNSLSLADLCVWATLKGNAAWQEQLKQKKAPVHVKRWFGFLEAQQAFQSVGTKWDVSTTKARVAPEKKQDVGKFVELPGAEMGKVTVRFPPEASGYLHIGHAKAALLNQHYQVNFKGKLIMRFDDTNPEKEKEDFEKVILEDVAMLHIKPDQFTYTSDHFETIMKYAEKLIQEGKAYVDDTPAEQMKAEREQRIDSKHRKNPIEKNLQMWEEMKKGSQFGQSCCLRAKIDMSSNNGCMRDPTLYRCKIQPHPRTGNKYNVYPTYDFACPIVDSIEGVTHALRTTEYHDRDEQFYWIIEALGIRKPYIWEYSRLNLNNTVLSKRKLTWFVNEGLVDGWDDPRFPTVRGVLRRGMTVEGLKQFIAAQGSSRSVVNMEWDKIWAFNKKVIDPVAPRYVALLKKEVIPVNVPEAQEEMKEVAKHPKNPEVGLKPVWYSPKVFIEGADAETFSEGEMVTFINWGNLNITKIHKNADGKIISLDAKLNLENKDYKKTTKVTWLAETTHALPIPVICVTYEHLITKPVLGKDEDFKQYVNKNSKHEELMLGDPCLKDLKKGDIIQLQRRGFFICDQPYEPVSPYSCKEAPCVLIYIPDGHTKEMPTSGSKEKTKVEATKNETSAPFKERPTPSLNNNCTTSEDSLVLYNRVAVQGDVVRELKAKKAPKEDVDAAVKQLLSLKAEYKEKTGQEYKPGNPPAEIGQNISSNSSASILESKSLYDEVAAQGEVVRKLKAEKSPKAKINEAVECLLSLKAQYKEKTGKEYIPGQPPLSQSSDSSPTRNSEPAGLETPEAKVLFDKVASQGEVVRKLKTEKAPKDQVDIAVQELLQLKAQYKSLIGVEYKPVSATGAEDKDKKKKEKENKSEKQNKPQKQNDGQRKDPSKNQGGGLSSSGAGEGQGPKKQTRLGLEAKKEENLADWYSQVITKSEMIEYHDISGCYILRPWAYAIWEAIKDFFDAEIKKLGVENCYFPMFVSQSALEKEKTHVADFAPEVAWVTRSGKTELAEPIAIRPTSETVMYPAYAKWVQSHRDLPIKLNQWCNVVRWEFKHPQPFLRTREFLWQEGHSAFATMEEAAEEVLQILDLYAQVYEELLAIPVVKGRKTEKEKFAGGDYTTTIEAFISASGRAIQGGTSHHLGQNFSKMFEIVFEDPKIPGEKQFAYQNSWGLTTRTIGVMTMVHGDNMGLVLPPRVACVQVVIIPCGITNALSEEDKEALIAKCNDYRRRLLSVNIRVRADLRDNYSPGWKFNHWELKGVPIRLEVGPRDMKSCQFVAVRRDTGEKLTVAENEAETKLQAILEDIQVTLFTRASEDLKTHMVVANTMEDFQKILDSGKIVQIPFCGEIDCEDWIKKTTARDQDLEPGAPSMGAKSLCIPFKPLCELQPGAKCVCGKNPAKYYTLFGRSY
Sequence of UniProt Q14139 (Q14139 whole entry): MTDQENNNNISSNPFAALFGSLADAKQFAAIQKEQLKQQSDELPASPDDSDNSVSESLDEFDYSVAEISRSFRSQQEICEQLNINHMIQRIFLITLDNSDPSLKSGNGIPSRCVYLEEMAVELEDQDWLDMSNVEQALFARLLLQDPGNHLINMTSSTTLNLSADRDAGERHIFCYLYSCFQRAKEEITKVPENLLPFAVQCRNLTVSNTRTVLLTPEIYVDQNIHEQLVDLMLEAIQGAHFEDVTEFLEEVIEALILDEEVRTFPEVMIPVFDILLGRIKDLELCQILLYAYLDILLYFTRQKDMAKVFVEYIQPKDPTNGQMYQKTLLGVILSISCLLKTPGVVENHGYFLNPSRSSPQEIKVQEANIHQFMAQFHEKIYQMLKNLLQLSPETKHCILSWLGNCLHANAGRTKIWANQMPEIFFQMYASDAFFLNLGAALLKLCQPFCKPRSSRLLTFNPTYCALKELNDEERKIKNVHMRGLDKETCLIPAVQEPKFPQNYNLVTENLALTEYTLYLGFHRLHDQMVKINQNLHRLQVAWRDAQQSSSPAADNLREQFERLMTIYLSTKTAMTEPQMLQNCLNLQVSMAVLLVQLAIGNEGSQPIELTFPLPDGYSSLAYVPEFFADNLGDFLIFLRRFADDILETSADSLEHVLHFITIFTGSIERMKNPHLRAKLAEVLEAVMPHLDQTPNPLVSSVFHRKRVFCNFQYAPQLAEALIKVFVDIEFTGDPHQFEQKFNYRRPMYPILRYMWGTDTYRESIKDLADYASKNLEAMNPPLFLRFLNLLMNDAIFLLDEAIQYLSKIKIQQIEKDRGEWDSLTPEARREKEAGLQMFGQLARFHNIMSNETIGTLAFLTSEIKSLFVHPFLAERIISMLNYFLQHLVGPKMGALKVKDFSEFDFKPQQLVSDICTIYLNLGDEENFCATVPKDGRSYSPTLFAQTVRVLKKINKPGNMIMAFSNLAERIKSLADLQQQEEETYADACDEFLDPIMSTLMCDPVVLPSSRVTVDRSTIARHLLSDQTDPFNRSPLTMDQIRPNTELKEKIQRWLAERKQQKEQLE
Sequence of UniProt Q9NVA1 (Q9NVA1 whole entry): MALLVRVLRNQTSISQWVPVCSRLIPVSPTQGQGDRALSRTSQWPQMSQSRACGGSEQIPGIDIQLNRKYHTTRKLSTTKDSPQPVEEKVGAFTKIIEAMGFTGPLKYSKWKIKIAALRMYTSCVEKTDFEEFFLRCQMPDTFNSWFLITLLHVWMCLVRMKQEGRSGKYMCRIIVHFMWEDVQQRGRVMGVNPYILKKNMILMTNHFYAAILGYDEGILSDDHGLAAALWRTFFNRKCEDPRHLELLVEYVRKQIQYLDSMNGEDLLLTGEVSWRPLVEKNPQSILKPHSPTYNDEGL

Target	thermal stability z-score
NDUFB4 (UniProt O95168)	0.137
AGK (UniProt Q53H12)	0.541
EPRS (UniProt P07814)	-0.648
SUMF2 (UniProt Q8NBJ7)	-3.47
ATXN3 (UniProt P54252)	0.199
DYRK1A (UniProt Q13627)	-0.118
DYNC1H1 (UniProt Q14204)	-0.0235
TNPO3 (UniProt Q9Y5L0)	-0.654
SUPT6H (UniProt Q7KZ85)	0.225
WDR26 (UniProt Q9H7D7)	-0.326
RUVBL2 (UniProt Q9Y230)	-0.408
ACP2 (UniProt P11117)	-0.226
TRMU (UniProt O75648)	-0.59
ZMYM1 (UniProt Q5SVZ6)	0.0919
CYC1 (UniProt P08574)	0.0943
TMEM165 (UniProt Q9HC07)	0.669
UBE4A (UniProt Q14139)	-0.217
APH1A (UniProt Q96BI3)	0.28
SUOX (UniProt P51687)	-0.266
EXOC5 (UniProt O00471)	-0.0743
MMAB (UniProt Q96EY8)	-1.28
PRKDC (UniProt P78527)	0.373
PMS1 (UniProt P54277)	-0.133
GART (UniProt P22102)	0.221

Target	thermal stability z-score
C1GALT1 (UniProt Q9NS00)	-0.00802
SCRN3 (UniProt Q0VDG4)	-0.445
KPNA6 (UniProt O60684)	-0.328
TCP11L1 (UniProt Q9NUJ3)	-0.328
UQCC1 (UniProt Q9NVA1)	0.493
DPP7 (UniProt Q9UHL4)	0.246
VPS52 (UniProt Q8N1B4)	-0.424
ARFIP1 (UniProt P53367)	0.444
H2AFZ|H2AFV	1.28
TUBGCP3 (UniProt Q96CW5)	0.238
PDK2 (UniProt Q15119)	0.292
MCM2 (UniProt P49736)	-0.75
PTPRS (UniProt Q13332)	-0.214
MELK (UniProt Q14680)	-0.0697
MSI2 (UniProt Q96DH6)	0.43
POLA2 (UniProt Q14181)	-0.305
DLST (UniProt P36957)	0.396
QTRTD1 (UniProt Q9H974)	0.678
CEP192 (UniProt Q8TEP8)	-0.251
SNU13 (UniProt P55769)	-0.119
MAML1 (UniProt Q92585)	0.141
RFC3 (UniProt P40938)	-0.548
PRMT5 (UniProt O14744)	0.459
LIN9 (UniProt Q5TKA1)	-0.0678

Target	thermal stability z-score
MRPS18B (UniProt Q9Y676)	0.319
FAM129B (UniProt Q96TA1)	0.659
ZFR (UniProt Q96KR1)	0.561
STXBP4 (UniProt Q6ZWJ1)	-0.119
DOCK1 (UniProt Q14185)	-0.371
ARHGEF5 (UniProt Q12774)	-0.685
GCC2 (UniProt Q8IWJ2)	-0.88
PITX1 (UniProt P78337)	0.0195
ENO1 (UniProt P06733)	0.588
FASTKD5 (UniProt Q7L8L6)	-1.07
SAAL1 (UniProt Q96ER3)	0.357
NCAPG2 (UniProt Q86XI2)	-0.00836
RPL3 (UniProt P39023)	0.408
NCLN (UniProt Q969V3)	-3.4
RAB5B (UniProt P61020)	0.278
BICC1 (UniProt Q9H694)	0.291
ALKBH6 (UniProt Q3KRA9)	0.205
BTAF1 (UniProt O14981)	0.085
DNAJC6 (UniProt O75061)	0.617
NDUFS5 (UniProt O43920)	-0.473
LRCH4 (UniProt O75427)	0.0394
GNAI1 (UniProt P63096)	0.913
CAV1 (UniProt Q03135)	0.49

Same assay, conditions: HeLa; lipoamide concentration 100 µM; arsenate co-treatment: none

Target	thermal stability z-score
NDUFB4 (UniProt O95168)	0.173
AGK (UniProt Q53H12)	0.38
EPRS (UniProt P07814)	-0.436
SUMF2 (UniProt Q8NBJ7)	-2.99
ATXN3 (UniProt P54252)	0.278
DYRK1A (UniProt Q13627)	-0.0216
DYNC1H1 (UniProt Q14204)	0.118
TNPO3 (UniProt Q9Y5L0)	-0.367
SUPT6H (UniProt Q7KZ85)	0.758
WDR26 (UniProt Q9H7D7)	-0.319
RUVBL2 (UniProt Q9Y230)	-0.0917
ACP2 (UniProt P11117)	-0.57
TRMU (UniProt O75648)	-0.509
ZMYM1 (UniProt Q5SVZ6)	0.0471
CYC1 (UniProt P08574)	-0.0471
TMEM165 (UniProt Q9HC07)	-0.0469
UBE4A (UniProt Q14139)	-0.148
APH1A (UniProt Q96BI3)	-0.0861

Target	thermal stability z-score
SUOX (UniProt P51687)	-0.279
EXOC5 (UniProt O00471)	0.105
MMAB (UniProt Q96EY8)	-1.35
PRKDC (UniProt P78527)	0.169
PMS1 (UniProt P54277)	-0.0146
GART (UniProt P22102)	-0.0107
C1GALT1 (UniProt Q9NS00)	-0.575
SCRN3 (UniProt Q0VDG4)	-0.169
KPNA6 (UniProt O60684)	-0.314
TCP11L1 (UniProt Q9NUJ3)	0.00441
UQCC1 (UniProt Q9NVA1)	0.855
DPP7 (UniProt Q9UHL4)	0.304
VPS52 (UniProt Q8N1B4)	-0.105
ARFIP1 (UniProt P53367)	0.144
H2AFZ|H2AFV	1.33
TUBGCP3 (UniProt Q96CW5)	0.127
PDK2 (UniProt Q15119)	0.0166
